# Columns and labels:
# [1] = target: TYK2 (Homo sapiens, UniProt P29597); test: Caliper mobility shift kinase assay, TYK2; type: biochemical; details: 1 mM ATP concentration
# Procedure: (§1) The in vitro inhibitory effect of compounds on JAK1, JAK2, JAK3 or TYK2 kinase was detected by Caliper mobility shift assay. Compounds to be tested were dissolved in DMSO, and prepared into 10 mM stock solutions. Stock solutions of the compounds were prepared into 50× working solutions (10 concentrations in total) through gradient dilution using DMSO, and each concentration of working solution was transferred to an Echo® master plate. The Echo® non-contact nanoliter sonic pipetting system was used to transfer […] of compound solution or DMSO of the corresponding concentration from the master plate to the 384-well reaction plate. Then, 10 μL of 2.5× kinase solution was added to the 384-well reaction plate. After 10 minutes of incubation at room temperature, 10 μL of mixed solution of 2.5×FAM-labeled polypeptide and ATP (final ATP concentration was 1 mM) was added. 30 μL of stop reagent was added, detected on Caliper, and the conversion value was calculated, i.e. the height of the product peak divided by the sum of the heights of the substrate and product peaks. […] Percent inhibition=(max−conversion)/(max−min)×100, wherein “max” represents the conversion reading for the DMSO control and “min” represents the conversion reading for the low value control.
# [2] = target: JAK1 (Homo sapiens, UniProt P23458); test: Caliper mobility shift kinase assay, JAK1; type: biochemical; details: 1 mM ATP concentration
# Procedure: as §1
# [3] = target: JAK2 (Homo sapiens, UniProt O60674); test: Caliper mobility shift kinase assay, JAK2; type: biochemical; details: 1 mM ATP concentration
# Procedure: as §1
# [4] = target: T1, JAK3 (Homo sapiens, UniProt P52333); test: Caliper mobility shift kinase assay, JAK3; type: biochemical; details: 1 mM ATP concentration
# T1 sequence (P52333 1-1124): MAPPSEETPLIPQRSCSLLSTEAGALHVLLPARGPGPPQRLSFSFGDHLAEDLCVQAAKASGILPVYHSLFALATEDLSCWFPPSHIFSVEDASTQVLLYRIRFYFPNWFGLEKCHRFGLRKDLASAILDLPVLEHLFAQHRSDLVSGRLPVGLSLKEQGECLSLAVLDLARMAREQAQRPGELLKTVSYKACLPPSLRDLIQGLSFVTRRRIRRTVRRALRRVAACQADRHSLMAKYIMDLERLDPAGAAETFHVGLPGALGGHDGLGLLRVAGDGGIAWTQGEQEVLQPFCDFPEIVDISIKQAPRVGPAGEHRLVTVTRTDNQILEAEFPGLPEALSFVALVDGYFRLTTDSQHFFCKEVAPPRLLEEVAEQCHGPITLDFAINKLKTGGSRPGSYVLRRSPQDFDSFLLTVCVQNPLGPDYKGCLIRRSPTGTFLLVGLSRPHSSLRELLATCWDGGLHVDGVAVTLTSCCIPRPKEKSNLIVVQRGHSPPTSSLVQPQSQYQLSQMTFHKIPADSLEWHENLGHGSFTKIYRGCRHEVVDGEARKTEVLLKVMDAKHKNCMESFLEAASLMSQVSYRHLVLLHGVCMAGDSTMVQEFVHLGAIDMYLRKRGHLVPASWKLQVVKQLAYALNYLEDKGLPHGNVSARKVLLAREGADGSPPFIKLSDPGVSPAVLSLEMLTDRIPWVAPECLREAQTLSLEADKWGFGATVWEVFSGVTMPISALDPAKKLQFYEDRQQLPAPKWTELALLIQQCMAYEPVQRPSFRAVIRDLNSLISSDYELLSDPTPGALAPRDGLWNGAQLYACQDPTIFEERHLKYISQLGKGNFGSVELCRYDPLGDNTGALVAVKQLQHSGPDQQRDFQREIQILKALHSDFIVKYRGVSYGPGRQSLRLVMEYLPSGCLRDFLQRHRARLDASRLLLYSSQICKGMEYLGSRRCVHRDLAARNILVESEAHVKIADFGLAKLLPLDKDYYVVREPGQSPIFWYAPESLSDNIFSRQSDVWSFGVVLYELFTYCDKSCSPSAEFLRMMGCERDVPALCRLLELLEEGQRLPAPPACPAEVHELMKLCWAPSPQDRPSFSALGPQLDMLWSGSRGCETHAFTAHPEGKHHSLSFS
# Procedure: as §1
# [5] = tested on: Ba/F3-TEL-TYK2 cells; test: CellTiter-Glo proliferation of Ba/F3-TEL-TYK2 cells; type: cell-based; details: Mus musculus, murine B lymphocyte BaF3 with TEL-human TYK2 kinase domain
# Description: (§2) In murine B lymphocytes BaF3, recombinant genes (including TEL and human JAK1, TYK2, JAK2, JAK3 kinase domains) were transferred by using genetic engineering technology, in which TEL could promote phosphorylation of TEL-JAK1 or TEL-TYK2 kinase dimer and continuously activate, thus allowing cells to grow dependent on the activity of this recombinant kinase. […] CellTiter-Glo method was used to detect the proliferation of genetically engineered cell lines Ba/F3-TEL-JAK1, Ba/F3-TEL-TYK2, Ba/F3-TEL-JAK2, and Ba/F3-TEL-JAK3 which was cultured in vitro. Graphpad 7.0 was used to fit curves and IC 50 values were calculated.
# [6] = tested on: Ba/F3-TEL-JAK1 cells; test: CellTiter-Glo proliferation of Ba/F3-TEL-JAK1 cells; type: cell-based; details: Mus musculus, murine B lymphocyte BaF3 with TEL-human JAK1 kinase domain
# Description: as §2
# [7] = tested on: Ba/F3-TEL-JAK2 cells; test: CellTiter-Glo proliferation of Ba/F3-TEL-JAK2 cells; type: cell-based; details: Mus musculus, murine B lymphocyte BaF3 with TEL-human JAK2 kinase domain
# Description: as §2
# [8] = tested on: Ba/F3-TEL-JAK3 cells; test: CellTiter-Glo proliferation of Ba/F3-TEL-JAK3 cells; type: cell-based; details: Mus musculus, murine B lymphocyte BaF3 with TEL-human JAK3 kinase domain
# Description: as §2
# JAK1, sequence (P23458 whole entry): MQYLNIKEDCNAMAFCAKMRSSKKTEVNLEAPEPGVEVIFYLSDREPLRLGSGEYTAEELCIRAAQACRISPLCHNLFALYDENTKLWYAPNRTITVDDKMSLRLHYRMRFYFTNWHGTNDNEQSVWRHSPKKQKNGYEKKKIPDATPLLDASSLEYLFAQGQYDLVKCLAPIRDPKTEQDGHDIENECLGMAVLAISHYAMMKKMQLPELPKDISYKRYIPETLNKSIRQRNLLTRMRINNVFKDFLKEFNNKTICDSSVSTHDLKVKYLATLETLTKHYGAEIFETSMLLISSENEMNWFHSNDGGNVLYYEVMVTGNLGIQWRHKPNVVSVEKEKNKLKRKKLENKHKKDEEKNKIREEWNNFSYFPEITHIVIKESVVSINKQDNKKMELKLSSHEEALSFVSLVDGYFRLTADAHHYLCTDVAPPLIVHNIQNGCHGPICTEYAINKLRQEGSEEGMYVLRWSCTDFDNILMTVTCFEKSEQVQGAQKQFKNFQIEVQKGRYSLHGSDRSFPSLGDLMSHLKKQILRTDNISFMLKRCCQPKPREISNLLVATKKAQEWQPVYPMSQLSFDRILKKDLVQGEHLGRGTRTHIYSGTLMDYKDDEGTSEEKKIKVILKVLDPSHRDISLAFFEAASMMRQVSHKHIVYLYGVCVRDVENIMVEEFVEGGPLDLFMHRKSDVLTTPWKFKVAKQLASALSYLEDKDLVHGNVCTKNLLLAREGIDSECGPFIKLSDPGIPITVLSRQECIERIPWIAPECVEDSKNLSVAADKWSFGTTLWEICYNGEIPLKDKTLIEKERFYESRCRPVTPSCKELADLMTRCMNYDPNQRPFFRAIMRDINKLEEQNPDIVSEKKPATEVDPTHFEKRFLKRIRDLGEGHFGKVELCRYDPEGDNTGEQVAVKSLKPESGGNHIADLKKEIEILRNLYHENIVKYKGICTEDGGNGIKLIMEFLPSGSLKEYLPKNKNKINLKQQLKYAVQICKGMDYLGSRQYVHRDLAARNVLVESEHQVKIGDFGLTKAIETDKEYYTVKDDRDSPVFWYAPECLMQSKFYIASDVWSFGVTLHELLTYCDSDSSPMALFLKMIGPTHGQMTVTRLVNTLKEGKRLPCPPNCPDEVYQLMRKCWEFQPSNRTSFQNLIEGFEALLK
# TYK2, sequence (P29597 whole entry): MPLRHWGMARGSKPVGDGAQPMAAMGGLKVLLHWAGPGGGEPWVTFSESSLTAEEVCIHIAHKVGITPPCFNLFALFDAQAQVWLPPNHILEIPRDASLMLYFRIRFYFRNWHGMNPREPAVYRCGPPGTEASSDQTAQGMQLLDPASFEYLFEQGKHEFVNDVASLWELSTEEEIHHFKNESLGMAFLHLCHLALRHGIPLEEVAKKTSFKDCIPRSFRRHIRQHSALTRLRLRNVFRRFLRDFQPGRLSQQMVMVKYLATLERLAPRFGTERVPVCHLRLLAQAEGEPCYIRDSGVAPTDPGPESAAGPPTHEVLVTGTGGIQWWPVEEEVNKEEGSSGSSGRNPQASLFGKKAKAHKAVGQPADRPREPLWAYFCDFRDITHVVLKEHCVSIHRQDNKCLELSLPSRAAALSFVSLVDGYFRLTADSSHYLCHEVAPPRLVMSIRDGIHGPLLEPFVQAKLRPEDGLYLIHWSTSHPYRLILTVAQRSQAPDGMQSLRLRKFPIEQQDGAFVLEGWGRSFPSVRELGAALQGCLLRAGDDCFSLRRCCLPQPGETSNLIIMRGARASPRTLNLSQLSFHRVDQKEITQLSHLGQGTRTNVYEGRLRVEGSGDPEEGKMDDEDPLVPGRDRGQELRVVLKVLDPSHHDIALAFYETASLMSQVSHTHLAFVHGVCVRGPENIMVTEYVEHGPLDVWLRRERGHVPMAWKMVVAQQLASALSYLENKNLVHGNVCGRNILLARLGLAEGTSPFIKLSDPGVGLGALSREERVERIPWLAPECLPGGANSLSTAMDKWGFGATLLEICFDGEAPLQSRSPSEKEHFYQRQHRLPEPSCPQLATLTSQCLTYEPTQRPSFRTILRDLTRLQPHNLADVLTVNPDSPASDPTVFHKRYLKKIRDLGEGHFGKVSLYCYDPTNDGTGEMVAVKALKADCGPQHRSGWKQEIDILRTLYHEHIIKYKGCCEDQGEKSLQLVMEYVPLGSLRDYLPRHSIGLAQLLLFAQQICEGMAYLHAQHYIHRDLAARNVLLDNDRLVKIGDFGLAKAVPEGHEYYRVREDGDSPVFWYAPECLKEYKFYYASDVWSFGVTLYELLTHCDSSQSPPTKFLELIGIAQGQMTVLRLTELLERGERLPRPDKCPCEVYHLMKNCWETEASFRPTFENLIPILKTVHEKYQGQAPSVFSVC
# JAK2, sequence (O60674 whole entry): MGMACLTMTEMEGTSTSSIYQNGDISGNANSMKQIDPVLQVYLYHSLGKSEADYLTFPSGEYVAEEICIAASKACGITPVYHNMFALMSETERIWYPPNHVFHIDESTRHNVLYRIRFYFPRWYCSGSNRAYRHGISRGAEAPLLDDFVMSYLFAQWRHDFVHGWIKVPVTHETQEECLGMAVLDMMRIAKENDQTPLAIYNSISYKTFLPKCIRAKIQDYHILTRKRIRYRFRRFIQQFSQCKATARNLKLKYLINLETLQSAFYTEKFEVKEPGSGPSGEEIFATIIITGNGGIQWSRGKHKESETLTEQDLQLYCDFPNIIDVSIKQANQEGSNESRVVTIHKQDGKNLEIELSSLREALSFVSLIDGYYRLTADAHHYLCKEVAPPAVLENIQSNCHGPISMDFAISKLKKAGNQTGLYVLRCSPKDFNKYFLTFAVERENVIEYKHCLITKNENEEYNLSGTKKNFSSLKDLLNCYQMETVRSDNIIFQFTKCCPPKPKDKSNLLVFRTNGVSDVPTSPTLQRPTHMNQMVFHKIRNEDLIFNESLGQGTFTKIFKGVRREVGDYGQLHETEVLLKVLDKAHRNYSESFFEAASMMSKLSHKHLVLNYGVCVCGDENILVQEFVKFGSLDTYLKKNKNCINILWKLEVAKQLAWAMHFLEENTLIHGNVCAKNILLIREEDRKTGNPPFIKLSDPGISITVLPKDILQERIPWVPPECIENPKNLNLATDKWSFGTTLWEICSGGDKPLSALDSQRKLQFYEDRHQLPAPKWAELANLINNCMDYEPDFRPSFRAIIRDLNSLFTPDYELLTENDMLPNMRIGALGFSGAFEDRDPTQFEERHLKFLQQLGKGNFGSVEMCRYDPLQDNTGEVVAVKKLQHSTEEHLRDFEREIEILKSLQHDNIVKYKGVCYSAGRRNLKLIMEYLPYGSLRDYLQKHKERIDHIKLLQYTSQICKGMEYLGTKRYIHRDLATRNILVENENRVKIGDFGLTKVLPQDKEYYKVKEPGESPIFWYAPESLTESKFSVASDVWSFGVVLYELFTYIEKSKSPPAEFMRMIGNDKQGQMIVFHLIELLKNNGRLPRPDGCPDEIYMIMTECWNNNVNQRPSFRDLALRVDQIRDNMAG
Compound,IC50 [1],IC50 [2],IC50 [3],IC50 [4],IC50 [5],IC50 [6],IC50 [7],IC50 [8]
Cn1cc(Nc2nccc(N3CC4CSC(C3)N4C(=O)[C@@H]3CC3(F)F)n2)cn1 (stereo partly shown) [Example 1],4.2 nM,32 nM,27 nM,3470 nM,111 nM,31 nM,87 nM,3690 nM
O=C([C@@H]1CC1(F)F)N1[C@H]2CS[C@@H]1CN(c1ccnc(Nc3cnn(CCO)c3)n1)C2 [Example 2],1.7 nM,10 nM,1.4 nM,2270 nM,192 nM,314 nM,173 nM,8640 nM
O=C([C@@H]1CC1(F)F)N1[C@H]2CS[C@@H]1CN(c1ccnc(Nc3cnn(C4(CO)CC4)c3)n1)C2 [Example 3],2.9 nM,107 nM,,,556 nM,56 nM,427 nM,> 10000 nM
